What was measured:
[1] = tested on: HIV-1; set-up: method as in PMID 10985087; conditions: cited from earlier work
[2] = tested on: RSV (long strain, VR-26); test: CPE reduction assay, in vitro antiviral activity against RSV; type: cell-based, respiratory syncytial virus; conditions: for anti-RSV activity (in words): in vitro; for IC50: human respiratory syncytial virus, concentration that reduced 50% of CPE in respect to virus control, RSV in HEp-2 cells, mean (SD), n = 3; for SI: ratio of CC50 to IC50
Description: (§1) Human larynx epidermoid carcinoma cell line (HEp-2, CCL-23) and RSV (long strain, VR-26) were purchased from the American Type Culture Collection (ATCC, USA). The cells were grown in Eagle's minimum essential medium (EMEM) (Gibco, USA) supplemented with 10% fetal bovine serum (FBS) (Gibco, USA), 25 μg/ml gentamicin (Sigma, USA) and […] L-glutamine (Sigma, USA) (growth medium). Virus-infected cells were maintained in EMEM with 1% FBS, 25 μg/ml gentamicin and […] L-glutamine (maintenance medium). All the cells were cultured at 37°C in a humidified atmosphere supplied with 5% CO2. Virus titers were determined by the 50% tissue culture infective dose (TCID50) method.
CPE reduction assay was adopted for screening the in vitro antiviral activity as described in the previous study. Briefly, 0.1 ml of 100 TCID50 virus suspension and serial two-fold dilutions of the tested samples were added simultaneously to confluent cell monolayers in a 96-well plate. Virus suspension and maintenance medium without samples were added as the virus control and cell control, respectively. The plates were incubated at 37°C in a humidified CO2 atmosphere for 3-5 days. The virus-induced CPE was scored against the virus control under a light microscope. Ribavirin (Sigma, USA) was used as positive control in this experiment.

[3] = Cytotoxicity assay (MTT method); type: cell-based; conditions: human, concentration with half maximal inhibition on growth and survival of HEp-2 cells, mean (SD), n = 3
Description: as §1
Cell viability was tested by the 3-(4,5-dimethylthiazol-2-yl)-2,5-diphenyl tetrazolium bromide (MTT) method as described in previous study. Briefly, 100 μl of two-fold diluted samples were added to a 96-well plate containing confluent cell monolayer in triplicates while the dilution medium without the sample was the control. After 72 hours of incubation, 12 μl of the MTT solution (5 mg/ml in phosphate buffered saline) was added to each well. The trays were further incubated for four hours for the formation of blue formazan. After the supernatant was removed, the blue formazan was solubilized in 100 μl DMSO and the optical density (OD) was measured at 570 nm with a microplate reader.

In the case of `COc1cc(C[C@@H]2COC(=O)[C@@]2(O)Cc2ccc(O)c(OC)c2)ccc1O` [(+)-nortrachelogenin], the “activity against HIV-1 in vitro (in words)” value [1] is given as “moderately active”.

With `O=C1c2c(O)cc(O)cc2O[C@H](c2ccc(O)cc2)[C@H]1[C@@H]1C(=O)c2c(O)cc(O)cc2O[C@@H]1c1ccc(O)cc1` [Compound I, neochamaejasmin B] the “anti-RSV activity (in words)” value ([2]; CPE reduction assay) was “did not show anti-RSV effect”, the “anti-RSV activity (in words)” value ([2]; CPE reduction assay, listed as neochamaejasmin B) was “did not” and the “IC50 (symbol)” value ([2]; CPE reduction assay, highest concentration tested = maximal non-cytotoxic concentration) was “-”. For the same compound, the CC50 at 72 h [3] was 29.9 µM.

In the case of `O=C1C=C2O[C@@H](c3ccc(O)cc3)[C@]3(O)C(=O)c4c(O)cc(O)cc4O[C@]23C2=C1C[C@H](O)[C@@H](c1ccc(O)cc1)O2` [Compound II, genkwanol B], the “anti-RSV activity (in words)” value ([2]; CPE reduction assay) is reported as “potent anti-RSV activity”, the IC50 [2] is reported as 9.6 µM and the SI [2] is reported as 11.0. For the same compound, the CC50 at 72 h [3] was 106 µM.

For `O=C1C=C2O[C@H](c3ccc(O)cc3)[C@@]3(O)C(=O)c4c(O)cc(O)cc4O[C@@]23C2=C1C[C@H](O)[C@@H](c1ccc(O)cc1)O2` [Compound III, genkwanol C], the “anti-RSV activity (in words)” value ([2]; CPE reduction assay) was “potent anti-RSV activity”, the IC50 [2] was 6.6 µM and the SI [2] was 21.9. It also gave a CC50 at 72 h [3] of 145 µM.

For `O=C1C=C2O[C@H](c3ccc(O)cc3)[C@@]3(O)C(=O)c4c(O)cc(O)cc4O[C@@]23C2=C1C[C@@H](O)[C@@H](c1ccc(O)cc1)O2` [Compound IV, stelleranol], the “anti-RSV activity (in words)” value ([2]; CPE reduction assay) was “potent anti-RSV activity”, the IC50 [2] was 10.2 µM and the SI [2] was 15.8. For the same compound, the CC50 at 72 h [3] was 162 µM.

Compound `NC(=O)c1ncn([C@@H]2O[C@H](CO)[C@@H](O)[C@H]2O)n1` [Ribavirin, reference compound] has an IC50 [2] of 11.9 µM, an SI [2] of 21.6 and a CC50 at 72 h [3] of 256 µM.

For `O=C(c1c(O)cc(O)cc1O)c1c(-c2ccc(O)cc2)oc2cc(O)c3c(c12)O[C@H](c1ccc(O)cc1)[C@@H](O)C3` [daphnodorin B], the “activity against HIV-1 in vitro (in words)” value [1] is given as “moderately active”.

For `O=C1c2c(O)cc(O)cc2O[C@@]12c1c(cc(O)c3c1O[C@H](c1ccc(O)cc1)[C@@H](O)C3)O[C@@H]2c1ccc(O)cc1` [genkwanol A], the “activity against HIV-1 in vitro (in words)” value [1] is given as “moderately active”.

In the case of `O=c1c(-c2c(O)cc(O)c3c2O[C@H](c2ccc(O)cc2)[C@@H](O)C3)c(-c2ccc(O)cc2)oc2cc(O)cc(O)c12` [wikstrol B], the “activity against HIV-1 in vitro (in words)” value [1] is given as “moderately active”.
